According to patent publication US5817816A (Meiji Seika Kaisha, Ltd., priority 1997, dated 1998):

These compounds were tested against T1, progesterone receptor (Sus scrofa, UniProt D0EWS6) (assay: Progesterone receptor binding inhibition ([3H]-progesterone, hog uterus cytosol)). Details: [3H]-progesterone ligand, 60 min at 4° C.
T1 construct: from tissue; host or cells: hog uterus, 100,000×g supernatant (cytosol)
T1 sequence (D0EWS6 1-934): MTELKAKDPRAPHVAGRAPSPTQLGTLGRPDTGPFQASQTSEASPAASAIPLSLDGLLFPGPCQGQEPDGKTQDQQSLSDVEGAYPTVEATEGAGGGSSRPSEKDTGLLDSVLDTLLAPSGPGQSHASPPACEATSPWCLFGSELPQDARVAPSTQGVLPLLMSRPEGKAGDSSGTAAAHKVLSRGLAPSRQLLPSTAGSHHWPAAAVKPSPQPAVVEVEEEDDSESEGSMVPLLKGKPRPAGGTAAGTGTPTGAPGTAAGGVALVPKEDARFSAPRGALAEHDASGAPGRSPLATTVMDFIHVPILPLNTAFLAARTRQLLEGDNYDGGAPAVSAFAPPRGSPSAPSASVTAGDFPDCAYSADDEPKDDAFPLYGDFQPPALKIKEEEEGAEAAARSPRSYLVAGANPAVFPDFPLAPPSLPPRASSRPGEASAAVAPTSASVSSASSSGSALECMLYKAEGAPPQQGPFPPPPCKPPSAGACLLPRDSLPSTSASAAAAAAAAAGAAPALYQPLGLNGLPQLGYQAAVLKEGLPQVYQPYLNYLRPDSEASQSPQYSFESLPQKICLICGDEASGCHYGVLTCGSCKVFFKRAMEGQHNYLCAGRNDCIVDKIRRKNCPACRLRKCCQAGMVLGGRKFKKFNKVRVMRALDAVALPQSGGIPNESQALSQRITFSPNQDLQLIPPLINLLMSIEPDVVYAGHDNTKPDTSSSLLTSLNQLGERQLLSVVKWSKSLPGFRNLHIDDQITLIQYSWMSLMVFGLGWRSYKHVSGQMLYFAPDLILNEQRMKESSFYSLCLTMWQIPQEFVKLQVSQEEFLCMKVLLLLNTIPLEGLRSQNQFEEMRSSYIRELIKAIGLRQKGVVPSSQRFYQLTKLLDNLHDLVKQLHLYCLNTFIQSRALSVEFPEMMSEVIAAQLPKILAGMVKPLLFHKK
Parameters: species or system hogs
Experimental: That is, uteri taken from hogs were disrupted in 5 mM phosphate buffer by means of Polytron homogenizer, and this solution was centrifuged (100,000×g, 30 min) to separate the supernatant, thereby preparing a cytosol containing progesterone receptor. A given concentration of a test drug solution (10 μl) was added to a solution composed of 50 μl of the cytosol obtained Just above (2-3 mg protein/ml) and 40 μl of a solution of [^3 H]-progesterone as a ligand (3.84 TBq/mM, 18.5 kBq/ml), and they were incubated in a test tube for 60 min at 4° C. to effect a reaction. Then, 100 μl of a 0.5% activated carbon solution was added to the reaction solution, and the mixture was allowed to stand for 10 min and then centrifuged (2,000×g, 10 min). The radioactivity of the supernatant was measured with a liquid scintillation counter.
Separately, the radioactivity was measured in the same manner as described above, except that no test drug was added. Further, the radioactivity was measured in the same manner as described above, except that 10 μl of Medroxyprogesterone Acetate (MPA) (10 μg/ml) was added instead of the test drug. The radioactivity with no test drug added was defined as the amount of total binding of [^3 H]-progesterone to the cytosol, and the radioactivity with MPA added was defined as the amount of non-specific binding. […] [formula]

SMILES | IC50 [nM]
CC(=O)O[C@H]1CC(Cl)=C2C=C3OC(=O)C(C)=C3C[C@]2(C)[C@H]1C [Example 7a, 3β-Acetoxy-1-chloroeremophila-1(10),7(11),8(9)-trien-12,8-olide] | < 100
CC(=O)O[C@H]1CC=C2C=C3OC(=O)C(C)=C3C[C@]2(C)[C@H]1C [Example 7b, 3β-Acetoxyeremophila-1(10),7(11),8(9)-trien-12,8-olide] | < 100
COC(=O)C(C)=C1C[C@@]2(C)C(=CC1=O)C=C[C@H](OC(C)=O)[C@@H]2C [Example 14a, 3β-Acetoxy-8-oxoeremophila-1(2),7(11),9(10)-trien-12-oic acid methyl ester] | 600
CC(=O)O[C@H]1C=CC2=C[C@H]3OC(=O)C(C)=C3C[C@]2(C)[C@H]1C [Example 15, 3β-Acetoxyeremophila-1(2),7(11),9(10)-trien-12,8β-olide] | < 100
CC1=C2C[C@@]3(C)C(=CC=C[C@@H]3C)C=C2OC1=O [Example 16, Eremophila-1(10),2(3),7(11),8(9)-tetraen-12,8-olide] | 400
CC(=O)O[C@H]1CC(Sc2ccccc2)=C2C=C3OC(=O)C(C)=C3C[C@]2(C)[C@H]1C [Example 21a, 3β-Acetoxy-1-phenylthioeremophila-1(10),7(11),8(9)-trien-12,8-olide] | 700
CCOC1=C2C=C3OC(=O)C(C)=C3C[C@]2(C)[C@@H](C)[C@@H](OC(C)=O)C1 [Example 21b, 3β-Acetoxy-1-ethoxyeremophila-1(10),7(11),8(9)-trien-12,8-olide] | 279
